Experimental data: patent US10793563B2, “GCN2 inhibitors and uses thereof” (Merck Patent GmbH, priority 2018, dated 2020)

How the values were obtained:
[1] = test system: primary human pan T-cells; experiment: Human IL-2 Assay for GCN2 Inhibition (IL-2 secretion from T cells in low amino acid condition); type: cell-based; conditions: Homo sapiens, T-cell, 96 h, IL-2 secretion from human T cells stimulated with anti-CD3/CD28 in low amino acid condition, ELISA, read-out: IL2/T-cell EC50
Excerpt: Tumor microenvironment is profoundly immuno-suppressive. This may be attributed to the depletion of amino acids (like arginine and tryptophan) which triggers the activation of GCN2 in immune cells, including T cell and myeloid cells. In T cells, activation of GCN2 leads to reduce effector functions of CD8 T cells and induction and/or maintenance of immuno-suppressive T-regs. Inhibition of that immuno-suppressive response by GCN2 inhibitors enables an anti-cancer immune response by activating effector T-cells. Herein we describe an in-vitro system we established using human T-cells stimulated in low amino acid condition in order to engage the GCN2 biology. The method described involves the modulation of IL-2 levels secreted by human T cells in responses to the GCN2 inhibitors disclosed herein.
Amino acid-free RPMI was reconstituted with all but one of the amino acids found in standard RMPI (e.g. Arginine, Tryptophan), 10% charcoal-stripped fetal bovine serum, 100 Units/mL penicillin and 0.1 mg/mL streptomycin. Primary human pan T-cells were isolated using Pan T Cell Isolation Kit, human (MACS Miltenyi biotech Cat # Order no. 130-096-535) from apheresis cones and 5×104 pan T-cells per well. The purified T cells are seeded in Nunc™ 96-Well Polystyrene Round Bottom Microwell Plates (the cells are rested in No TRP media in a 15 ml falcon tube in the incubator for 30-45 minutes while titrations for tryptophan and the GCN2 inhibitor compound are made) A plate matrix was developed to titrate both a GCN2 inhibitor and the amino acid of interest ranging from “No Amino Acid” condition, up to the concentration found in the regular RPMI media (20 μM for TRP and 950 μM for Arginine). The cells were incubated for 30 min at 37° C. with the GCN2 inhibitor and then stimulated with 5×104 anti-CD3/CD28 Dynabeads® per well. After 96 hours of incubation the IL-2 level in the supernatant were measured using ELISA (R&D systems Cat # DY202 (Human IL-2 DuoSet ELISA). Data were plotted in GraphPad Prism software and EC50 is calculated.

GCN2 kinase = GCN2 kinase (Homo sapiens (Human), UniProt Q9P2K8); experiment: GCN2 Enzyme Inhibition Assay (Transcreener ADP2 fluorescence polarization); type: biochemical; conditions: 280 μM ATP, 200 μM (RS)7 peptide, 4 nM GCN2, 25° C.; for Ki: Ki(app)
Method in brief: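 At 25 °C, GCN2 kinase (typical final concentration 4 nM) and (RS)7 peptide in Tris-HCl pH 7.5 buffer with MgCl2, NaCl and DTT were preincubated with compound for 10 min, then ATP was added for a 1 h reaction. ADP was read by FP with antibody/Alexa633 tracer. Non-linear tight-binding analysis gave IC50 and apparent Ki.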

[2] = target: intracellular GCN2 (phosphorylation of the GCN2 substrate eIF2α) (Homo sapiens (Human), UniProt Q9P2K8); experiment: GCN2 Cellular Inhibition Assay (AlphaScreen SureFire P-eIF2α Ser51, borrelidin-treated U2OS cells); type: cell-based; conditions: 10 μM borrelidin, 1 h, phosphorylated eIF2α Ser51, read-out: GCN2 Biomarker (IC50)
Method in brief: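 Phospho-eIF2α (Ser51) measured by AlphaScreen SureFire in lysates of U2OS cells stimulated 1 h at 37 °C with 10 μM borrelidin alongside compound, 4-fold dilutions from 40 μM. Inhibition expressed as percent relative to borrelidin-alone controls.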

GCN2 kinase, sequence (Q9P2K8 whole entry): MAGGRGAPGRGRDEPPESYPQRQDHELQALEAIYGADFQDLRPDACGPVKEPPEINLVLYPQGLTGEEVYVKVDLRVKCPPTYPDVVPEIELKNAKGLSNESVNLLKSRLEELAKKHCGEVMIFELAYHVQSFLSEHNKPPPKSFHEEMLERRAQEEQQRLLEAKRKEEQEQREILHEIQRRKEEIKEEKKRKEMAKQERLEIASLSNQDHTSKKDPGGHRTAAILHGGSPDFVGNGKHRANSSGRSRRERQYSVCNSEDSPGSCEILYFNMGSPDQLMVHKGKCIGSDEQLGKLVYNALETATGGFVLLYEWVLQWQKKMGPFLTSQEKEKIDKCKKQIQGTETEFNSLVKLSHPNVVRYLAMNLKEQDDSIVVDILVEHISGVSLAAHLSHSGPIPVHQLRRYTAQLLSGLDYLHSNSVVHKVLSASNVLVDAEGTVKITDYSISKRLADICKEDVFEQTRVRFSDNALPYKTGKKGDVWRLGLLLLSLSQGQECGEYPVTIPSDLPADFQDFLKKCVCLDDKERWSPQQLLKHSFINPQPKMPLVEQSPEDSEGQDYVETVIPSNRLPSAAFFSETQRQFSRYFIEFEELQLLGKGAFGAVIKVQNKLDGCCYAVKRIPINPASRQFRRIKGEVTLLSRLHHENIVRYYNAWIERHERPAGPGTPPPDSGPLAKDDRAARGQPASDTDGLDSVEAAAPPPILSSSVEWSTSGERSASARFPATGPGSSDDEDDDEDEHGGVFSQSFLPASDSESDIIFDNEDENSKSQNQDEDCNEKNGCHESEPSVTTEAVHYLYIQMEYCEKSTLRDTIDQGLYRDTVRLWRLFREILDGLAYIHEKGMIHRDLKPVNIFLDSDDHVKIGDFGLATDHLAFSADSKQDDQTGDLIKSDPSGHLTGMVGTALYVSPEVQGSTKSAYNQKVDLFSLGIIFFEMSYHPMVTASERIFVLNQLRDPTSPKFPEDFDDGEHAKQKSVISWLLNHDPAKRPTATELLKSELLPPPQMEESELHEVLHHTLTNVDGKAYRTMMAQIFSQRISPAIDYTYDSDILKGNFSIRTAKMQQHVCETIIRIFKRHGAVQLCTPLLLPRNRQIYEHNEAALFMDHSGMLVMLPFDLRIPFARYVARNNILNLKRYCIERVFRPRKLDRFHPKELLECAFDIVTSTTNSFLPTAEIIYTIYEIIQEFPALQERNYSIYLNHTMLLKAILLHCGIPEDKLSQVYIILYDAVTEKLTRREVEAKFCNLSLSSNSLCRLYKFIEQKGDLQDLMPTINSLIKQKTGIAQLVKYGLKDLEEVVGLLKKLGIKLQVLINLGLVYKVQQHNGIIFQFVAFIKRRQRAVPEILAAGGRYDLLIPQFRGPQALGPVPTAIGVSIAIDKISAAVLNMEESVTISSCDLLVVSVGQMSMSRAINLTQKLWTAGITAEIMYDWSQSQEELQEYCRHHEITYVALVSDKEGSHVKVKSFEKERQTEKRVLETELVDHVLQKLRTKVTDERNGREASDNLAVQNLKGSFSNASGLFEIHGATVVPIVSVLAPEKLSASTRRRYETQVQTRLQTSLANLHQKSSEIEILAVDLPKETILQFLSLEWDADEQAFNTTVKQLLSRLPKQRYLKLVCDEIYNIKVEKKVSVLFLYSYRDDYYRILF
intracellular GCN2 (phosphorylation of the GCN2 substrate eIF2α), sequence (Q9P2K8 whole entry): as above

EC50 [1] [nM]	IC50 (GCN2 kinase) [nM]	IC50 [2] [nM]	Ki (GCN2 kinase) [nM]	SMILES
100 to 500				C[C@H]1CN(c2ccnc(-c3cnc4cc(F)c(Cl)cn34)n2)C[C@@H](c2cn[nH]c2)O1 [I-568, (2S,6R)-4-(2-(6-chloro-7-fluoroimidazo[1,2-a]pyridin-3-yl)pyrimidin-4-yl)-2-methyl-6-(1H-pyrazol-4-yl)morpholine]
< 100				C[C@@H]1C[C@@H](c2cn[nH]c2)CN(c2ccnc(-c3cnc4ccc(C(F)(F)F)cn34)n2)C1 [I-567, 3-(4-((3R,5S)-3-methyl-5-(1H-pyrazol-4-yl)piperidin-1-yl)pyrimidin-2-yl)-6-(trifluoromethyl)imidazo[1,2-a]pyridine]
< 100				C[C@@H]1CN(c2ccnc(-c3cnc4ccc(C(F)(F)F)cn34)n2)C[C@H](c2cn[nH]c2)O1 [I-564, (2R,6S)-2-methyl-6-(1H-pyrazol-4-yl)-4-(2-(6-(trifluoromethyl)imidazo[1,2-a]pyridin-3-yl)pyrimidin-4-yl)morpholine]
100 to 500				C[C@@H]1[C@H](C(N)=O)N(C2CC2)CCN1c1ccnc(-c2cnc3ccc(Cl)cn23)n1 [I-547, (2R,3R)-4-(2-(6-chloroimidazo[1,2-a]pyridin-3-yl)pyrimidin-4-yl)-1-cyclopropyl-3-methylpiperazine-2-carboxamide]
100 to 500				C[C@H]1CN(c2ccnc(-c3cnc4ccc(Cl)cn34)n2)[C@@H](C)[C@@H](c2cn[nH]c2)N1 [I-563, 6-chloro-3-(4-((2S,3R,5S)-2,5-dimethyl-3-(1H-pyrazol-4-yl)piperazin-1-yl)pyrimidin-2-yl)imidazo[1,2-a]pyridine]
100 to 500				C[C@@H]1C[C@@H](N=S(C)(C)=O)CN(c2ccnc(-c3cnc4ccc(C(F)F)cn34)n2)C1 [I-569, (((3R,5R)-1-(2-(6-(difluoromethyl)imidazo[1,2-a]pyridin-3-yl)pyrimidin-4-yl)-5-methylpiperidin-3-yl)imino)dimethyl-λ6-sulfanone]
< 100				C[C@@H]1C[C@@H](c2cn[nH]c2)CN(c2ccnc(-c3cnc4ccc(Cl)cn34)n2)C1 [I-559, 6-chloro-3-(4-((3R,5S)-3-methyl-5-(1H-pyrazol-4-yl)piperidin-1-yl)pyrimidin-2-yl)imidazo[1,2-a]pyridine]
< 100				C[C@@H]1CN(c2ccnc(-c3cnc4ccc(Cl)cn34)n2)C[C@H](c2cn[nH]c2)O1 [I-566, (2R,6S)-4-(2-(6-chloroimidazo[1,2-a]pyridin-3-yl)pyrimidin-4-yl)-2-methyl-6-(1H-pyrazol-4-yl)morpholine]
< 100				C[C@@H]1[C@H](c2cn[nH]c2)N(C2COC2)CCN1c1ccnc(-c2cnc3ccc(C(F)(F)F)cn23)n1 [I-565, 3-(4-((2R,3 S)-2-methyl-4-(oxetan-3-yl)-3-(1H-pyrazol-4-yl)piperazin-1-yl)pyrimidin-2-yl)-6-(trifluoromethyl)imidazo[1,2-a]pyridine]
	100 to 1000	500 to 5000		N#C[C@@H]1CN(c2ccnc(-c3cnc4ccc(C(F)(F)F)cn34)n2)CCO1 [I-232, (S)-4-(2-(6-(trifluoromethyl)imidazo[1,2-a]pyridin-3-yl)pyrimidin-4-yl)morpholine-2-carbonitrile]
		< 500	< 10	CC1CN(c2ccnc(-c3cnc4ccc(Cl)cn34)n2)C(C)C(c2cn[nH]c2)N1 (centres unmarked) [I-36, 6-chloro-3-[4-[2,5-dimethyl-3-(1H-pyrazol-4-yl)piperazin-1-yl]pyrimidin-2-yl]imidazo[1,2-a]pyridine]
	10 to 100	< 500		FC(F)(F)c1ccc2ncc(-c3nccc(N4CCN(C5CC5)C(c5cn[nH]c5)C4)n3)n2c1 (stereo in doubt) [I-503, (R)-3-(4-(4-cyclopropyl-3-(1H-pyrazol-4-yl)piperazin-1-yl)pyrimidin-2-yl)-6-(trifluoromethyl)imidazo[1,2-a]pyridine]
	< 10	< 500		C[C@@H]1C[C@H](N=S(C)(C)=O)CN(c2ccnc(-c3cnc4ccc(C(F)F)cn34)n2)C1 [I-340, (((3 S, 5R)-1-(2-(6-(difluoromethyl)imidazo[1,2-a]pyridin-3-yl)pyrimidin-4-yl)-5-methylpiperidin-3-yl)imino)dimethyl-λ6-sulfanone]
	10 to 100	> 5000		O=C(c1cnon1)N1CCN(c2ccnc(-c3cnc4ccc(C(F)(F)F)cn34)n2)CC1c1cn[nH]c1 (centres unmarked) [I-441, (2-(1H-pyrazol-4-yl)-4-(2-(6-(trifluoromethyl)imidazo[1,2-a]pyridin-3-yl)pyrimidin-4-yl)piperazin-1-yl)(1,2,5-oxadiazol-3-yl)methanone]
	< 10	< 500		CC1(C)C[C@@H]1CN1CCN(c2ccnc(-c3cnc4ccc(C(F)(F)F)cn34)n2)C[C@H]1c1cn[nH]c1 [I-529, 3-(4-((R)-4-(((S)-2,2-dimethylcyclopropyl)methyl)-3-(1H-pyrazol-4-yl)piperazin-1-yl)pyrimidin-2-yl)-6-(trifluoromethyl)imidazo[1,2-a]pyridine]
	10 to 100	500 to 5000		Cc1cc(-c2cnc3ccc(Cl)cn23)nc(N2C[C@@H](C)O[C@H](c3cn[nH]c3C)C2)n1 [I-218, (2R,6R)-4-(4-(6-chloroimidazo[1,2-a]pyridin-3-yl)-6-methylpyrimidin-2-yl)-2-methyl-6-(5-methyl-1H-pyrazol-4-yl)morpholine]
	< 10	500 to 5000		Cc1ncc(CN2CCN(c3ccnc(-c4cnc5ccc(C(F)(F)F)cn45)n3)CC2c2cn[nH]c2)[nH]1 (centres unmarked) [I-372, 3-(4-(4-((2-methyl-1H-imidazol-5-yl)methyl)-3-(1H-pyrazol-4-yl)piperazin-1-yl)pyrimidin-2-yl)-6-(trifluoromethyl)imidazo[1,2-a]pyridine]
	10 to 100	< 500		C[C@H]1CN(c2nccc(-c3cnc4ccc(C(F)(F)F)cn34)n2)CC(c2cc[nH]n2)O1 (stereo in doubt) [I-138, (2S,6R)-2-methyl-6-(1H-pyrazol-3-yl)-4-(4-(6-(trifluoromethyl)imidazo[1,2-a]pyridin-3-yl)pyrimidin-2-yl)morpholine]
	100 to 1000	500 to 5000		c1ccc(Oc2ccc3ncc(-c4nccc(N5CCC[C@H](c6cn[nH]c6)C5)n4)n3c2)cc1 [I-398, 2-{6-phenoxyimidazo[1,2-a]pyridin-3-yl}-4-[(3R)-3-(1H-pyrazol-4-yl)piperidin-1-yl]pyrimidine]
		500 to 5000	10 to 100	OC1(c2ccccc2)CCCN(c2ccnc(-c3cnc4cc(F)c(Cl)cn34)n2)C1 (centres unmarked) [I-81, 1-[2-(6-Chloro-7-fluoro-imidazo[1,2-a]pyridin-3-yl)-pyrimidin-4-yl]-3-phenyl-piperidin-3-ol]
	100 to 1000	> 5000		C[C@H]1[C@H](c2cn[nH]c2)N(C2COC2)CCN1c1ccnc(-c2cnc3ccc(C(F)(F)F)cn23)n1 [I-364, 3-(4-((2S,3 S)-2-methyl-4-(oxetan-3-yl)-3-(1H-pyrazol-4-yl)piperazin-1-yl)pyrimidin-2-yl)-6-(trifluoromethyl)imidazo[1,2-a]pyridine]
	100 to 1000	500 to 5000		Cc1[nH]ncc1[C@@H]1[C@H](C)N(c2ccnc(-c3cnc4ccc(C(F)(F)F)cn34)n2)CCN1C1COC1 [I-365]
		500 to 5000	10 to 100	O=C1NCC2CN(c3ccnc(-c4cnc5ccc(C(F)(F)F)cn45)n3)CCN12 (centres unmarked) [I-6, 7-(2-(6-(trifluoromethyl)imidazo[1,2-a]pyridin-3-yl)pyrimidin-4-yl)hexahydroimidazo[1,5-a]pyrazin-3(2H)-one]
	10 to 100	< 500		Cc1[nH]ncc1[C@H]1CN(c2ccnc(-c3cnc4ccc(C(F)(F)F)cn34)n2)C[C@H](C)O1 [I-147, (2 S,6 S)-2-methyl-6-(5-methyl-1H-pyrazol-4-yl)-4-(2-(6-(trifluoromethyl)imidazo[1,2-a]pyridin-3-yl)pyrimidin-4-yl)morpholine]
		500 to 5000	10 to 100	Clc1ccc2ncc(-c3nccc(N4CCCC(c5c[nH]cn5)C4)n3)n2c1 (centres unmarked) [I-55, 6-Chloro-3-{4-[3-(1H-imidazol-4-yl)-piperidin-1-yl]-pyrimidin-2-yl}-imidazo[1,2-a]pyridine]
